In patent publication US9790188B2, “Benzimidazole derivatives and uses thereof” (Whitehead Institute for Biomedical Research, priority 2013, dated 2017):

Legend:
WT yeast = assay: Growth inhibition of wild-type yeast (dose-response); assay type: cell-based; settings: relative to parent ABI1
Method: (§1) Source plates were assembled in 96 well plates using multichannel pipettes to dilute rows in 1.6-fold serial dilutions of CSMGal. […] For α-syn, the final starting OD600 was 0.02. Drug concentration ranges varied depending on efficacy, growth inhibition, and solubility in media. A Tecan EvoFreedom liquid handling robot was then used to transfer culture from 96 to 384 well format with each well being represented four times. Final well volume was 35 μL. Plates were then incubated in humidified containers at 30° C. for either 24 or 40 hours. Plates were then read with a Tecan Saphire plate reader at OD600.
(§2) Raw OD600 values were transformed to “Relative Growth” in WT cells or “% Maximum Rescue” in α-syn experiments. In WT cells, the well background was subtracted and all values were then normalized to 100% for the untreated condition. In α-syn rescue experiments, the well background was subtracted and the maximum rescue in the particular experiment was normalized to 100%.

α-syn = assay: Yeast growth rescue from α-syn toxicity (dose-response); assay type: cell-based; settings: relative to parent ABI1
Method: For galactose-induction experiments, overnight cultures were grown in CSM/2% glucose to saturation and diluted 1:20 into CSM/2% raffinose for ˜2 generations. Cultures were then diluted into CSM/2% galactose at an optimum OD600 for the experiment (see ‘Growth assays’).
as §1, §2

Cc1cc(C)cc(-n2cnc3cc(C(=O)NCc4ccccc4Cl)ccc32)c1 [ABI3, N-(2-chlorobenzyl)-1-(3,5-dimethylphenyl)-1H-benzo[d]imidazole-5-carboxamide]
shift of concentrations for ability to inhibit growth (WT yeast): higher | shift of concentrations for efficacy against α-syn (α-syn): higher
